Test results: ChEMBL document CHEMBL4190258, “Spirograterpene A, a Tetracyclic Spiro-Diterpene with a Fused 5/5/5/5 Ring System from the Deep-Sea-Derived Fungus Penicillium granulatum MCCC 3A00475” (J Nat Prod, 2017)
Converted amounts (≈) assume the structure as drawn.

Tests used:
HL-60 = assay: Cytotoxicity against human HL60 cells assessed as reduction in cell viability; type: functional, cell-based
RBL-2H3 = assay: Antiallergic activity in DNP-BSA-stimulated rat RBL2H3 cells assessed as inhibition of anti-DNP-IgE-mediated degranulation by measuring beta-hexosaminidase activity at 20 microg/ml pre-incubated for 1 hr followed by DNP-BSA stimulation by fluorescence assay relative to control; type: functional
Staphylococcus aureus = assay: Antibacterial activity against methicillin-resistant Staphylococcus aureus incubated for 18 hrs by broth microdilution method; type: functional

## C[C@@H]1C=CC(=O)[C@@]2(C)CC[C@@H]3[C@@H]4[C@@](C)(CC[C@@]4(C)CO)C[C@@]132
HL-60
  IC50: 38 nM
RBL-2H3
  inhibition at 20 µg/mL: 10%

## C[C@@H]1C[C@@H](O)[C@H](C)[C@@]12CCC1=C2C[C@@]2(C)CC[C@](C)(C(=O)O)[C@@H]12
RBL-2H3
  inhibition at 20 µg/mL: 18%

## C[C@H]1[C@H](O)CC(=O)[C@]2(C)CC[C@H]3[C@@H]4[C@@](C)(CO)CC[C@]4(C)C[C@]132
RBL-2H3
  inhibition at 20 µg/mL: 4%

## C[C@@H]1C=CC(=O)[C@@]2(C)CC[C@H]3[C@@]12C[C@]1(C)CCC(C)(C)[C@]31C
Staphylococcus aureus
  MIC: 8 µg/mL (≈ 26.6 µM)

## CCOC(=O)N1CCC(=C2c3ccc(Cl)cc3CCc3cccnc32)CC1 [LORATADINE]
RBL-2H3
  inhibition at 20 µg/mL: 35%
